In a melting point compilation (Tetko et al.; mined from patent text by program, amines drawn as free bases though some values may be those of a salt):

| SMILES | melting point |
| --- | --- |
| O=S1(=O)NC(Cl)=Nc2ccc(Cl)cc21 | 242 to 244 °C |
| Cc1cc(C)cc(-c2nc3ccc(O)cc3n2Cc2ccccc2CBr)c1 | 213 °C |
| CCCCNC(=O)N(C)c1ncc(-c2ccncc2)cn1 | 97 to 99 °C |
| CN1Cc2ccccc2P1(=O)c1ccccc1 (stereo not given) | 129 to 130 °C |
| CS(=O)(=O)Nc1ccc(C(=O)C2CCN(CCc3cnc4ccccc4n3)CC2)cc1 | 156 to 157 °C |
| Cc1ccc(C(=O)NCC(N)=O)cc1-n1c(C)cc(OCc2ccccc2CNC(=O)Nc2cc(C(C)(C)C)nn2-c2ccc(O)c(Cl)c2)c(Cl)c1=O | 228 to 230 °C |
| O=Cc1ccc(Sc2nc3cc(Cl)c(Cl)cc3[nH]2)o1 | 170 °C |
| Cc1ccc(Sc2c(O)c3ccc(Cl)cc3[nH]c2=O)cc1 | 245 to 246 °C |
| O=C(O)c1ccc2cc(-c3ccc(CC(O)CO)c(C45CC6CC(CC(C6)C4)C5)c3)ccc2c1 (stereo not given) | 258 °C |
| CC(C)C[C@@H](CO)NC(=O)[C@H](Cc1c[nH]cn1)NC(=O)[C@H](CSSc1ncccc1[N+](=O)[O-])NC(=O)OC(C)(C)C | 185 to 188 °C |
| CC(c1ccc(C(F)(F)F)cc1)N(O)C(N)=O (stereo not given) | 133 to 135 °C |
| COC(=O)CCCc1nnc(-c2nccs2)c2cc(OC)ccc12 | 136 to 137 °C |
| O=C(O)c1ccc(Oc2ccc3c(c2)CCN(CCN2CCCC2)C3=O)cc1 | 99 to 100 °C |
| O=C(NC(=O)c1c(F)cccc1F)Nc1cc(Cl)cc(C(F)(F)F)c1Cl | 205 to 208 °C |
| CCn1c2ccccc2n2c(=O)c(C(=O)N3CCOCC3)cnc12 | 200 to 202 °C |
| CCOC(=O)Cn1c(C(=O)NCc2nnc(C)n2-c2sc(CC)cc2C(=O)c2ccccc2Cl)cc2ccccc21 | 138 to 140 °C |
| CC(=O)c1cc(C#N)c(=O)[nH]c1-c1ccncc1 | 255 to 257 °C |
| COc1cc(Cl)nc(NC(=O)NS(=O)(=O)c2ccccc2OC(Cl)=CCl)n1 | 196 to 198 °C |
| COc1cc(Nc2nccc(Nc3ccc(OCC(=O)OC(C)(C)C)cc3)n2)cc(OC)c1OC | 139 °C |
| Nc1ccc(SCC2CCC2)cc1[N+](=O)[O-] | 49 to 53 °C |
| Cc1ccc(-c2ccccc2C#N)nc1 | 80 to 81 °C |
| O=C(CC1CCN(CCc2ccccc2)CC1)c1ccc(F)cc1 | 73 to 74 °C |
| O=C1NC(=S)SC1=Cc1ccc2c(c1)N(OCc1ccc(Cl)c(Cl)c1)C(=O)CO2 | > 300 °C |
| Oc1cc(OCc2ccccn2)ccc1/C=C/c1cc(/C=C/c2ccc3cc[nH]c3c2)n[nH]1 | 202 to 204 °C |

| SMILES | melting point |
| --- | --- |
| CC(C)C[C@@H]1OC(O)[C@H](Cc2ccccc2)NC1=O (stereo not given in full) | 84 to 84.5 °C |
| CCOC(=O)c1cnc2n(c1=O)CCCC2CC(=O)O (stereo not given) | 156 to 157 °C |
| CCOC(=O)c1c(-c2ccc(Cl)s2)ccnc1C(C(=O)OCC)c1cc(OC)cc(OC)n1 (stereo not given) | 127 to 132 °C |
| CC(O)COc1cccc(N)c1C(N)=O (stereo not given) | 115 to 118 °C |
| COC(=O)Cc1cc2c(c([N+](=O)[O-])c1)NCC2 | 113 to 115 °C |
| CCOC(=O)c1cccn2c(C#N)c(-c3ccccc3)nc12 | 87 to 89 °C |
| CC(CN(C)C)Oc1ccc(-c2nn(CC(=O)O)c3ncccc23)cc1 (stereo not given) | 210 to 211 °C |
| O=S1(=O)NCN(C2CC2)c2c1ccc(Cl)c2Cl | 132 to 133 °C |
| CCN(c1nc(NCCO)nc(N(CC)C2CC(C)(C)NC(C)(C)C2)n1)C1CC(C)(C)NC(C)(C)C1 | 184 to 185 °C |
| CS(=O)(=O)c1ccc(-c2ccc(N=[N+]=[N-])nc2-c2ccc(F)cc2)cc1 | 229 °C |
| COc1cc(OC)c2cc(-c3ccc(C#N)cc3)oc2c1 | 220 to 221 °C |
| O=Cc1ccc2c(c1)S(=O)c1ccccc1CC2 (stereo not given) | 158 to 160 °C |
| CCN1C(=O)C(C)(C)C(=O)N(C)c2cc(CCCN(CCn3ccc4ccoc4c3=O)Cc3cccnc3C)ccc21 | 106 to 115 °C |
| CN(Cc1ccccc1)c1cc(-c2nc(=O)c3ccccc3s2)ccn1 | 146 to 147 °C |
| CC(=O)NC[C@H]1CN(c2cc(F)c(N3CCC(n4nnc(N5CCN(C(C)=O)CC5)n4)CC3)c(F)c2)C(=O)O1 | 200 to 205 °C |
| O=C(O)CCCCN1CCN2c3ccccc3Sc3ccccc3C2C1 (stereo not given) | 226 to 230 °C |
| Cc1noc2cc(OC3SCC(O)C(O)C3O)ccc12 (stereo not given) | 148 to 161 °C |
| Cc1cc(C(N)=O)c(N)s1 | 140 to 141 °C |
| CCn1nnc(C(C=O)=C(c2ccc(F)cc2)c2ccc(F)cc2)n1 | 138 to 139 °C |
| COc1ccccc1-c1c2nn(-c3ccc(Cl)cc3)c(=O)c-2c[nH]c1C | 267 to 278 °C |
| C#CCN(Cc1cc2c(=O)n(C)c(CN3CCCCC3)nc2cc1Cl)c1ccc(C(=O)OC(C)(C)C)cc1 | 162 to 163 °C |
| O=C(CN1CCC(OCc2ccccc2)CC1)Nc1ccc2c(c1)OCC(=O)N2 | 238 to 240 °C |
| COc1cc(C)c(C=C2COCC(=Cc3cc(C)c(OC)cc3C)C2=O)cc1C | 182 to 184 °C |
| CCCCOc1ccc(Cc2cnc(N)nc2N)cc1OC | 143 to 147 °C |

| SMILES | melting point |
| --- | --- |
| C=CCOc1cc(-n2ncc(C(F)(F)F)c(C)c2=O)c(F)cc1Cl | 79.8 °C |
| CCCC(CCC)CCCC(N)=O | 44 °C |
| O=S(=O)(Cl)c1cncc(Br)c1 | 64 °C |
| COc1cccn2c(=O)c3c(nc12)C(=Cc1ccccc1)CC3 | 212 to 214 °C |
| Cc1cc2ccc(=O)oc2cc1O | 253 to 254 °C |
| CCN1C(=O)N(c2ccc(C#N)c(C(F)(F)F)c2)C(=O)C1(CF)CF | 129 to 130 °C |
| CC(=O)CNC1(c2ccc(OCCCN(C)C3CCCCC3)cc2)Sc2ccccc2N(C)C1=O (stereo not given) | 119 to 120 °C |
| CC(=O)c1ccc(-c2cnc3c(c2)N(Cc2ccccc2)C(=O)CN3)cc1 | 200 °C |
| CC1=C(c2ccc(C(=O)O)cc2)CCCC1 | 176 to 178 °C |
| Cc1c(C2=CCC(Cc3ccccc3)(N(C)C)CC2)[nH]c2ccc(F)cc12 (stereo not given) | 62 to 65 °C |
| C=CS(=O)(=O)CC(=O)N1CCN(C(=O)CS(=O)(=O)C=C)CC1 | 215 °C |
| COc1ccc(OC)c(S(=O)(=O)n2c(CCC(=O)O)cc3cc(Cl)ccc32)c1 | 185 to 189 °C |
| Cc1onc(-c2ccccc2)c1-c1[nH]c2ccccc2c1C(=O)C(=O)N(C)C | 258 to 260 °C |
| COC(=O)C1=C(C)NN=C(C(=O)N(C)Cc2ccccc2)C1c1ccccc1C(F)(F)F (stereo not given) | 197 °C |
| CN1CCN(c2ccc(F)cc2C=C2CCCN(c3ccc(Cl)cc3)C2=O)CC1 | 158 to 159 °C |
| CCOc1ccc2c(c1)C(C)(c1ccccc1Cl)C(=O)N2S(=O)(=O)c1ccc(C(=O)O)cc1 (stereo not given) | 174 °C |
| N#Cc1cccc(OC(=O)C(=O)Oc2cccc(C#N)c2)c1 | 187 to 190 °C |
| CCCC1(Br)Cc2c3c(c(C)c(C)c2C1=O)OC(C(=O)O)C3 (stereo not given) | 78 °C |
| O=C1C(=O)c2ccc(-c3ccncc3)cc2C2=C1SCC1(CCN(C(=O)c3cccc(Cl)c3)CC1)O2 | 265 to 267 °C |
| O=CNCc1ccccc1C(F)(F)C(F)(F)c1ccccc1 | 61 to 75 °C |
| O=C(O)C(Cc1ccccc1)Oc1ccc2cc(-c3csc(-c4ccccc4)n3)ccc2c1Br (stereo not given) | 220 to 224 °C |
| CS(=O)(=O)c1ccc(-c2[nH]c3ccc(Br)cc3c2-c2ccccc2)cc1 | 262 to 264 °C |
